Experimental data from the supplement of paper PMC10307832.

Tests used:
Experiment in all cases: relative viability (nuclei count vs DMSO), 5 days (fraction); higher = more cells survive
[1] = compound: C=CCc1cccc(/C=N/NC(=O)CN2CCN(Cc3ccccc3)CC2)c1O [PAC-1] + CC(=O)c1c(C)c2cnc(Nc3ccc(N4CCNCC4)cn3)nc2n(C2CCCC2)c1=O [Palbociclib] (partner 0.5 µM)
How it was run: (§1)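 Lung cancer cell lines were pin-tool dosed in 1536-well plates on the day after seeding, with either a lone drug or a fixed anchor-drug dose plus five library-drug doses (not always all listed) in √10 steps. Nuclei were counted on 4× images after 5 days. Relative viability is the ratio of treated-well to vehicle-well nuclei counts, with each value a median of duplicate plates.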

[2] = compound: C=CC(=O)Nc1cc(-n2c(=O)ccc3cnc4ccc(-c5ccc(NS(C)(=O)=O)cc5)cc4c32)ccc1C [BMX-IN-1] + CC(=O)c1c(C)c2cnc(Nc3ccc(N4CCNCC4)cn3)nc2n(C2CCCC2)c1=O [Palbociclib] (partner 0.5 µM)
How it was run: as §1

[3] = compound: C=CCc1cccc(/C=N/NC(=O)CN2CCN(Cc3ccccc3)CC2)c1O [PAC-1] + O=C(CCCCCCC(=O)Nc1ccccc1)NO [Vorinostat] (partner 1 µM)
How it was run: as §1

[4] = compound: C=CC(=O)N1CCC[C@@H](n2nc(-c3ccc(Oc4ccccc4)cc3)c3c(N)ncnc32)C1 [Ibrutinib] + COc1cccc2cc(-c3nc([C@H]4CC[C@H](C(=O)O)CC4)n4ncnc(N)c34)[nH]c12 [OSI-027] (partner 0.5 µM)
How it was run: as §1

| Cell Line | relative viability ([1]; first compound 0.02 µM) | relative viability ([1]; first compound 0.06325 µM) | relative viability ([1]; first compound 0.2 µM) | relative viability ([1]; first compound 2 µM) | relative viability ([2]; first compound 0.02 µM) | relative viability ([2]; first compound 0.2 µM) | relative viability ([2]; first compound 0.6325 µM) | relative viability ([2]; first compound 2 µM) | relative viability ([3]; first compound 0.02 µM) | relative viability ([3]; first compound 0.06325 µM) | relative viability ([3]; first compound 0.2 µM) | relative viability ([3]; first compound 2 µM) | relative viability ([4]; first compound 0.005 µM) | relative viability ([4]; first compound 0.01581 µM) | relative viability ([4]; first compound 0.05 µM) | relative viability ([4]; first compound 0.1581 µM) | relative viability ([4]; first compound 0.5 µM) |
| --- | --- | --- | --- | --- | --- | --- | --- | --- | --- | --- | --- | --- | --- | --- | --- | --- | --- |
| HCC-366 | 0.364 | 0.377 | 0.365 | 0.404 | 0.535 | 0.385 | 0.454 | 0.485 | 0.396 | 0.339 | 0.258 | 0.449 | 0.803 | 0.84 | 0.934 | 0.802 | 0.96 |
| HCC-827 | 0.482 | 0.461 | 0.442 | 0.473 | 0.486 | 0.409 | 0.503 | 0.467 | 0.903 | 0.857 | 0.752 | 0.841 | 0.727 | 0.67 | 0.648 | 0.783 | 0.45 |
| HOP-62 | 0.463 | 0.437 | 0.51 | 0.46 | 0.53 | 0.543 | 0.48 | 0.471 | 0.596 | 0.518 | 0.473 | 0.655 | 0.689 | 0.733 | 0.832 | 0.982 | 0.924 |
| IA-LM |  |  |  |  |  |  |  |  | 1.15 | 0.915 | 0.879 | 0.961 |  |  |  |  |  |
| LC-2-ad | 0.513 | 0.439 | 0.492 | 0.496 | 0.498 | 0.574 | 0.543 | 0.509 | 0.743 | 0.632 | 0.691 | 0.698 | 0.741 | 0.746 | 0.797 | 0.792 | 0.752 |
| LCLC-97TM1 | 0.211 | 0.274 |  | 0.225 | 0.247 | 0.3 | 0.227 | 0.217 | 0.776 | 0.805 |  | 0.761 | 0.586 | 0.425 | 0.558 | 0.487 | 0.483 |
| LCLC-103H | 0.482 | 0.489 | 0.503 | 0.438 | 0.475 | 0.532 | 0.479 | 0.412 | 0.854 | 0.864 | 0.759 | 0.826 | 0.459 | 0.409 | 0.485 | 0.393 | 0.485 |
| LK-2 | 0.536 | 0.809 | 0.616 | 0.63 | 1.1 | 0.75 | 0.704 | 0.895 | 0.317 | 0.306 | 0.301 | 0.58 | 0.151 | 0.203 | 0.203 | 0.174 | 0.212 |
| LOU-NH91 | 0.573 | 0.539 | 0.526 | 0.515 |  | 0.541 | 0.488 | 0.546 | 0.876 | 0.937 | 0.897 | 0.887 | 0.586 | 0.617 | 0.555 | 0.659 | 0.448 |
| LU99A | 0.425 | 0.422 | 0.461 | 0.408 | 0.45 | 0.428 | 0.421 | 0.411 | 0.502 | 0.448 | 0.429 | 0.502 | 0.245 | 0.254 | 0.323 | 0.32 | 0.288 |
| LXF-289 | 0.605 | 0.599 | 0.597 | 0.597 | 0.65 | 0.615 | 0.639 | 0.588 | 0.793 | 0.765 | 0.731 | 0.732 | 0.762 | 0.722 | 0.771 | 0.702 | 0.695 |
| NCI-H23 | 0.629 | 0.521 | 0.524 | 0.533 | 0.536 | 0.526 | 0.555 | 0.47 | 0.692 | 0.567 | 0.651 | 0.751 | 0.331 | 0.562 | 0.681 | 0.57 | 0.607 |
| NCI-H322M | 0.434 | 0.42 | 0.519 | 0.466 | 0.531 | 0.484 | 0.478 | 0.445 | 0.749 | 0.907 | 1.04 | 0.828 | 0.482 | 0.564 | 0.513 | 0.507 | 0.488 |
| NCI-H358 | 0.12 | 0.133 | 0.116 | 0.115 | 0.129 | 0.138 | 0.147 | 0.122 | 0.645 | 0.665 | 0.706 | 0.674 | 0.486 |  | 0.378 | 0.488 | 0.211 |
| NCI-H441 | 0.194 | 0.266 | 0.26 | 0.2 | 0.199 | 0.205 | 0.234 | 0.21 | 0.87 | 1.05 | 0.82 | 0.761 | 0.579 | 0.664 | 0.597 | 0.677 | 0.707 |
| NCI-H596 |  |  |  |  |  |  |  |  | 0.619 | 0.603 | 0.643 | 0.741 |  | 0.777 | 0.625 | 0.675 | 0.526 |
| NCI-H1563 |  |  |  |  |  |  |  |  |  |  |  |  | 0.753 | 0.71 | 0.694 | 0.825 | 0.766 |
| NCI-H1623 |  |  |  |  |  |  |  |  |  |  |  |  | 0.42 | 0.403 | 0.32 | 0.42 | 0.313 |
| NCI-H1792 | 0.692 | 0.627 | 0.64 | 0.627 |  | 0.64 | 1.26 | 0.613 |  |  |  |  |  | 0.712 | 0.677 |  | 0.808 |
